Holding throughout (type): ADME
Conditions in all cases: buffer

The nature of data set [1]: Pseudo first order rate constant for the alkaline hydrolysis of beta-lactams (35 degree Celsius) was determined at pH 10.
Data set [2] can be described thus: Half life at pH 10.
A short description of data set [3]: Pseudo first order rate constant for the alkaline hydrolysis of beta-lactams (35 degree Celsius) was determined at pH 11.
Data set [4] in a line: Half life at pH 11.

Turning to `C[C@H]1[C@H](NC(=O)/C(=N\OC(C)(C)C(=O)O)c2csc(N)n2)C(=O)N1S(=O)(=O)O` [AZTREONAM], the k in data set [1] turned out to be 0.4 h⁻¹. `C[C@H]1[C@H](NC(=O)Cc2ccccc2)C(=O)N1SCC(=O)[O-].[K+]` had a k in data set [1] of 0.73 h⁻¹. Besides, the half-life (as a rule, the time in which the quantity being followed falls by half) in data set [2] was 0.95 h. Regarding `C[C@@H]1NC(=O)[C@H]1NC(=O)OCc1ccccc1`, the k in data set [3] came to 0.029 h⁻¹. Moreover, in data set [4], the half-life is 24 h. For the compound `C[C@H]1[C@H](NC(=O)Cc2ccccc2)C(=O)N1OCC(=O)O`, in data set [1], the k amounted to 0.31 h⁻¹. In addition, the half-life in data set [2] is 2.2 h.

These data come from ChEMBL document CHEMBL1123697, “Heteroatom-activated beta-lactam antibiotics: considerations of differences in the biological activity of [[3(S)-(acylamino)-2-oxo-1-azetidinyl]oxy]acetic acids (oxamazins) and the corresponding sulfur analogues (thiamazins)” (J Med Chem, 1987).
